From patent publication US9867794B2, “Regulation of osteopontin” (Pathologica LLC, priority 2007, dated 2018)
Values joined by “and” are separate entries in the source; they are usually repeats but may differ in a detail not shown here. Equal entries are not always repeated.

Assays:
TNFα = experiment: QRT-PCR in CD14/CD16-separated cell fractions, TNFα RNA; assay type: cell-based, human; details: monocytes, 10 μM MGBG, p=0.03
Protocol: (§1) The changes induced by MGBG in different blood cell types were determined for osteopontin and adenosine deaminase and 7 other genes. For this experiment, blood samples were obtained from 6 healthy controls (3 men/3 women from 20 to 55 years of age) and mononuclear cells were isolated via Percoll gradient centrifugation. The cells were then incubated for 3 hours in RPMI media plus 10% fetal bovine serum at 37 C. At that point MGBG was added to 10 μM to half of each sample and then the cells were incubated at 37 C for 20 more hours. The cells were then bound to magnetic beads coated with antibodies to human CD16. Bound cells (CD16 expressing) were separated from unbound cells using an AutoMACs according to manufacturer's instructions (Miltenyi, Auburn Calif.). Then CD16+ cells are released from the magnetic beads and both the CD16+ and CD16− cells are combined with magnetic beads coated with antibodies to human CD14. Antibody bound and unbound cells were then separated using the AutoMACs machine. […] Cells that neither express CD16 nor CD14 (the −/− Cells). This is mostly T lymphocytes; 2. Cells that only express CD16. This includes contaminating granulocytes not removed by Percoll centrifugation and CD16+ monocytes with very low CD14 expression; 3. […] After separation, cells of each fraction are washed with PBS and the number of viable cells determined by trypan blue exclusion. […]

Osteopontin = experiment: Macrophage Osteopontin production in migration assays; assay type: cell-based; details: 10 μM MGBG; from >200 ng/mL without drug
Protocol: Additionally, cells being targeted by MGBG were investigated. […] To elucidate the effects of MGBG and OPN on cell motility, migration assays were conducted. MGBG at 10 μM inhibited macrophage Osteopontin production from >200 ng/mL to nondetectable levels while simultaneously inhibiting HeLa cell invasion into a Matrigel matrix.

IL24 = experiment: Quantitative RT-PCR, unsorted mononuclear cells, IL24; assay type: cell-based, human
Protocol: To evaluate the effect of MGBG on gene expression, blood samples were obtained from patients (N=18, 10 HIV-infected and 8 Healthy Controls). Mononuclear cells were isolated via Percoll gradient centrifugation. The cells were split into two tubes, one treated with 10 μM of MGBG and the other non-treated. The cells were then cultured overnight in RPMI media plus 10% fetal bovine serum at 37 C under non-adherent conditions, collected, lysed using Trizol solution, and total RNA prepared according to manufacturer's instructions (Invitrogen, Carlsbad, Calif.).
Approximately 200 ng of total RNA prepared from each sample was converted to cDNA using the First Strand cDNA Synthesis Kit for RT-PCR [AMV] kit (Roche Applied Diagnostics, Indianapolis, Ind.) according to manufacturer's instructions. Around 5 ng of cDNA sample was then used for PCR performed on a LightCycler (Roche Applied Diagnostics, Indianapolis, Ind.) using the LightCycler FastStart DNA Master SYBR Green I kit. PCR conditions are as follows: 1 cycle of denaturation at 95° C. for 10 minutes, followed by 45 cycles of 95° C. for 10 seconds, 68° C. for 10 seconds, and 72° C. for 16 seconds.
The sequences of gene-specific primers evaluated are listed below. All samples were also amplified with the human β-actin LightCycler-Primer set (Roche Diagnostics).

PBMCs = experiment: Cell viability of PBMC cultures when CCS were collected; assay type: cell-based, human; details: each MGBG concentration (0.1-100 μM), when the CCS were collected
CD14/16++ cells = experiment: Yield of CD14/16++ cells in culture, flow cytometry; assay type: cell-based, human; details: 10 μM MGBG; for % Reduction 14/16, Average: 5th day
OPN protein = experiment: OPN production inhibition assay in un-stimulated PBMC cultures, OPN protein; assay type: cell-based; details: 10 μM
Protocol: 10 μM of each drug was added to un-stimulated PBMC cultures at time=0 and cells were harvested 1,3, and 6 days later for quantitative OPN RNA and protein production analysis.

CD14 = experiment: QRT-PCR in CD14/CD16-separated cell fractions, CD14 RNA; assay type: cell-based, human; details: CD14/CD16++ macrophages, 10 μM MGBG, p=0.02
Protocol: as §1

[1] = 10 μM MGBG, all unsorted samples

For `CC(/C=N/NC(=N)N)=N\NC(=N)N` [MGBG, 1,1′ [methylethanediylidene]dinitrilodiguanidine], the “TNFα RNA median signal relative to no MGBG” value (TNFα) was 0.32, the “macrophage Osteopontin production” value (Osteopontin) was “nondetectable” and the “Fold change IL24 by QRT-PCR” value (IL24; 10 μM MGBG overnight, untreated vs treated, negative = fold reduction, individual samples) was 5.35 fold and 1.20 fold and 1.09 fold and −1.13 fold and 1.12 fold and 11.88 fold and 2.57 fold and 2.55 fold and 2.25 fold and 1.01 fold and −1.17 fold and 1.92 fold and 1.32 fold and 1.79 fold and 2.50 fold and −2.41 fold and −1.48 fold and −1.30 fold. For the same compound, the “Fold change IL24, AVERAGE” value (IL24; [1]) was 1.6 fold, the “Fold change IL24, MAX” value (IL24; [1]) was 11.9 fold and the “Fold change IL24, MIN” value (IL24; [1]) was −2.4 fold. The “IL24 % >2 fold Changed” value (IL24; share of samples, 10 μM MGBG) was 33%, the “IL24 regulation by MGBG” value (IL24; unsorted samples) was “did not exhibit a consistent pattern of change” and the cell viability (PBMCs) was “at least 75%”. The “% Reduction 14/16” value (CD14/16++ cells; 5th day of culture, individual donor samples (HIV or healthy)) was 26% and 53% and 91% and 54% and 61% and <0% and 71%, the “% Reduction 14/16, Average” value (CD14/16++ cells; average of HIV samples) was 60.3% and the “% Reduction 14/16, Average” value (CD14/16++ cells; average of healthy samples) was 57.5%. For the same compound, the OPN protein production (OPN protein) was “Complete inhibition” and the “CD14 RNA median signal relative to no MGBG” value (CD14) was 0.55.
